Reference: US12528773B2, “Non-lysosomal glucosylceramidase inhibitors and uses thereof” (ALECTOS THERAPEUTICS INC., priority 2020, dated 2026)

Columns and labels:
[1] = system: rat intestinal alpha-glucosidases; experiment: Inhibition of rat intestinal alpha-glucosidases (rat intestinal lysate, glucose detection); type: biochemical; details: compound concentration 25 μM, sucrose as substrate
Procedure: Assay for Determination of Inhibition of Rat Intestinal Alpha-Glucosidases
Various concentrations of test compounds were prepared in DMSO and then diluted into buffer consisting of 100 mM citric acid, 200 mM disodium phosphate, pH 6.0. Rat intestinal acetone powder (Sigma) was dissolved to 12.5 mg/mL in assay buffer and sonicated in an ice bath, centrifuged, and the supernatant was collected, aliquoted and stored at −20° C. until use. On the day of the assay, the rat intestinal lysate was diluted to 6.25 mg/mL (sucrose reactions) and 2.1 mg/ml (maltose reactions) in assay buffer. The final reaction solutions for sucrose contained 2.1 mg/mL rat intestinal lysate, 40 mM sucrose, 50 or 25 μM of test compound, and 3.3% DMSO. The final reaction solution for maltose contained 0.69 mg/mL rat intestinal lysate, 10 mM maltose, 50 or 25 μM of test compound, and 3.3% DMSO. The reaction was initiated by the addition of substrate (sucrose or maltose) and allowed to proceed at 37° C. for 20 min to assess rat intestinal alpha-glycosidase activities. The reaction was stopped by addition of 20 μL of 2 M Tris-HCl, pH 7.0. The glucose produced during the reaction was detected using a commercial Amplex Red glucose detection kit from Thermo Fisher. For a full plate, the Amplex Red detection mixture was prepared by mixing 35 μL glucose oxidase, 35 μL horseradish peroxidase and 35 μL Amplex Red into 3395 μL 1× Amplex Red detection buffer. A total of 30 μL of detection mixture was added to each well. Fluorescence was measured in kinetic mode on a Biotek Synergy H4 plate reader at a wavelength of 573 nm for excitation and 610 nm for emission for 15 min and quantified from the data at 10 min. Incubations without added rat intestinal lysate were used to correct for the background amount of glucose present in the samples. Incubations without added test compound were used to define maximal enzyme activity. Percent inhibition of rat intestinal alpha-glucosidases was determined by dividing the amount of glucose detected in the presence of test compound by the amount of glucose detected in the maximal enzyme activity wells. All conditions were analyzed in triplicate. […] The final reaction solutions were the same as described above for the Amplex Red Detection kit. After a 20 min reaction time at 37° C., 100 μL of hexokinase glucose reagent was added to all test wells except for the no enzyme added control wells and no test compound added wells. The plate was incubated for a further 15 min at room temperature and the absorbance was read at 340 nm on a Biotek Synergy H4 plate reader. The percent inhibition of rat intestinal alpha-glucosidases was determined in a similar manner as described above.

[2] = biological target: GBA2 (Homo sapiens (Human), UniProt Q9HCG7); experiment: Inhibition of GBA2 in cell lysate (4-methylumbelliferone glucopyranoside substrate); type: biochemical; details: HEK293T-overexpressing GBA2 cellular homogenate, pH 5.5; read-out: GBA2 IC50;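 further: homogenate of stably transfected HEK293T cells pre-treated with a GCase inhibitor, test compound preincubated 5 min at 37 °C, substrate reaction 20 min at 37 °C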
GBA2, sequence (Q9HCG7 whole entry): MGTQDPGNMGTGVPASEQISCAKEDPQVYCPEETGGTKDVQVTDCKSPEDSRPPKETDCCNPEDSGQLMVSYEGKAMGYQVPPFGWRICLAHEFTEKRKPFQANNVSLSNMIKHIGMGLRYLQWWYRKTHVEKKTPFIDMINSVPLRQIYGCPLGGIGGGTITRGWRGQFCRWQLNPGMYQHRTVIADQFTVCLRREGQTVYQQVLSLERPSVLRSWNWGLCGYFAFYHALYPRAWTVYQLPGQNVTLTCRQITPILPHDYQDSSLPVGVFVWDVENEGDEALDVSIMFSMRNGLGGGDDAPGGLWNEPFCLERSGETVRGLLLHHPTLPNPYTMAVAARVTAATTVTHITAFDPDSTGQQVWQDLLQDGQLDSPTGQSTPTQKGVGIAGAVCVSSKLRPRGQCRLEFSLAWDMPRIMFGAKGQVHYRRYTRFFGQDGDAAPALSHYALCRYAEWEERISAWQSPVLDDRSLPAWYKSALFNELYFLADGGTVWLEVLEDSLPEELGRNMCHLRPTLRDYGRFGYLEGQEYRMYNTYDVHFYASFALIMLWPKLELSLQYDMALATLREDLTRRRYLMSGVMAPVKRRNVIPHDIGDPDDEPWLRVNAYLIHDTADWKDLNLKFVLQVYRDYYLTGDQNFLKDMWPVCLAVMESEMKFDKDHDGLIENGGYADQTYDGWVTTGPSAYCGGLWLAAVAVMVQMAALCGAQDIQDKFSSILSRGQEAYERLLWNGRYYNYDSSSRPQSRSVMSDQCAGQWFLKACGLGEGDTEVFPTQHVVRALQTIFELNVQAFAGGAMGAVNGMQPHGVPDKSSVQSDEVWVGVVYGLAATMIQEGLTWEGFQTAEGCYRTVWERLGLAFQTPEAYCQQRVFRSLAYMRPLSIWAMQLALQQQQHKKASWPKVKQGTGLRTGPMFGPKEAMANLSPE

| Compound | rat α-glu. (% inhib.) [1] | IC50 [2] |
| --- | --- | --- |
| O[C@H]1[C@H](O)CN(CCC2CCCCC2)C[C@@H]1O [Example 4, (3S,4r,5R)-1-(2-cyclohexylethyl)piperidine-3,4,5-triol] | 14% | < 100 nM |
| O[C@H]1[C@H](O)CN(C[C@@H]2CCN(c3ncccc3C(F)(F)F)C2)C[C@@H]1O [Example 24, (3S,4S,5R)-1-(((S)-1-(3-(trifluoromethyl)pyridin-2-yl)pyrrolidin-3-yl)methyl)piperidine-3,4,5-triol] | 3% | < 100 nM |
| O[C@H]1[C@H](O)CN(C[C@H]2CCCN(c3ccncc3C(F)(F)F)C2)C[C@@H]1O [Example 172, (3S,4R,5R)-1-(((R)-1-(3-(trifluoromethyl)pyridin-4-yl)piperidin-3-yl)methyl)piperidine-3,4,5-triol] | 15% | < 100 nM |
| O[C@H]1[C@H](O)CN(C[C@@H]2CCN(c3ccc(C(F)(F)F)cn3)C2)C[C@@H]1O [Example 161, (3S,4S,5R)-1-(((S)-1-(5-(trifluoromethyl)pyridin-2-yl)pyrrolidin-3-yl)methyl)piperidine-3,4,5-triol] | 0% | < 100 nM |
| O[C@H]1[C@H](O)CN(CC2(F)CCN(c3ccc(F)cc3)CC2)C[C@@H]1O [Example 192, (3S,4r,5R)-1-((4-fluoro-1-(4-fluorophenyl)piperidin-4-yl)methyl)piperidine-3,4,5-triol] | 2% | 100 to 1000 nM |
| O[C@H]1[C@H](O)CN(C[C@H]2CC[C@H](C(F)F)CC2)C[C@@H]1O [Example 185, (3S,4R,5R)-1-(((1r,4R)-4-(difluoromethyl)cyclohexyl)methyl)piperidine-3,4,5-triol] | 3% | 100 to 1000 nM |
| O[C@H]1[C@H](O)CN(C[C@@H]2CCCN(c3ccc(C(F)(F)F)nc3)C2)C[C@@H]1O [Example 178, (3S,4S,5R)-1-(((S)-1-(6-(trifluoromethyl)pyridin-3-yl)piperidin-3-yl)methyl)piperidine-3,4,5-triol] | 6% | 100 to 1000 nM |
| O[C@H]1[C@H](O)CN(C[C@@H]2CCCN(c3nc(C(F)(F)F)cs3)C2)C[C@@H]1O [Example 39, (3S,4S,5R)-1-(((S)-1-(4-(trifluoromethyl)thiazol-2-yl)piperidin-3-yl)methyl)piperidine-3,4,5-triol] | 0% | 100 to 1000 nM |
| O[C@H]1[C@H](O)CN(C[C@H]2CCCN(c3ccc(C(F)(F)F)nc3)C2)C[C@@H]1O [Example 171, (3S,4R,5R)-1-(((R)-1-(6-(trifluoromethyl)pyridin-3-yl)piperidin-3-yl)methyl)piperidine-3,4,5-triol] | 1% | < 100 nM |
| O[C@H]1[C@H](O)CN(CC2Cc3ccccc3C2)C[C@@H]1O [Example 62, (3S,4r,5R)-1-((2,3-dihydro-1H-inden-2-yl)methyl)piperidine-3,4,5-triol] | 12% | < 100 nM |
| O[C@H]1[C@H](O)CN(Cc2ccc(N3CCCCC3)cc2)C[C@@H]1O [Example 204, (3S,4r,5R)-1-(4-(piperidin-1-yl)benzyl)piperidine-3,4,5-triol] | 4% | 100 to 1000 nM |
| O[C@H]1[C@H](O)CN(Cc2ccc(OCC3CC3)cc2)C[C@@H]1O [Example 200, (3S,4r,5R)-1-(4-(cyclopropylmethoxy)benzyl)piperidine-3,4,5-triol] | 7% | < 100 nM |
| O[C@H]1[C@H](O)CN(C[C@H]2CCCN(c3ccc(C(F)(F)F)cn3)C2)C[C@@H]1O [Example 170, (3S,4R,5R)-1-(((R)-1-(5-(trifluoromethyl)pyridin-2-yl)piperidin-3-yl)methyl)piperidine-3,4,5-triol] | 14% | < 100 nM |
| O[C@H]1[C@H](O)CN(C[C@H]2CCN(c3cncc(C(F)(F)F)c3)C2)C[C@@H]1O [Example 146, (3S,4R,5R)-1-(((R)-1-(5-(trifluoromethyl)pyridin-3-yl)pyrrolidin-3-yl)methyl)piperidine-3,4,5-triol] | 0% | < 100 nM |
| O[C@H]1[C@H](O)CN(C[C@@H]2CCCN(c3cncc(C(F)(F)F)c3)C2)C[C@@H]1O [Example 175, (3S,4S,5R)-1-(((S)-1-(5-(trifluoromethyl)pyridin-3-yl)piperidin-3-yl)methyl)piperidine-3,4,5-triol] | 3% | 100 to 1000 nM |
| O[C@H]1[C@H](O)CN(C[C@@H]2CCN(c3nc(C(F)(F)F)cs3)C2)C[C@@H]1O [Example 27, (3S,4S,5R)-1-(((S)-1-(4-(trifluoromethyl)thiazol-2-yl)pyrrolidin-3-yl)methyl)piperidine-3,4,5-triol] | 2% | < 100 nM |
| O[C@H]1[C@H](O)CN(C[C@@H]2CCN(c3cnccc3C(F)(F)F)C2)C[C@@H]1O [Example 25, (3S,4S,5R)-1-(((S)-1-(4-(trifluoromethyl)pyridin-3-yl)pyrrolidin-3-yl)methyl)piperidine-3,4,5-triol] | 1% | < 100 nM |
| O[C@H]1[C@H](O)CN(C[C@H]2CC[C@H](OC(F)(F)F)CC2)C[C@@H]1O [Example 189, (3S,4R,5R)-1-(((1r,4R)-4-(trifluoromethoxy)cyclohexyl)methyl)piperidine-3,4,5-triol] | 3% | < 100 nM |
| O=C(C1CCCCC1)N1CCC(F)(CN2C[C@@H](O)[C@H](O)[C@@H](O)C2)CC1 [Example 191, Cyclohexyl(4-fluoro-4-(((3S,4r,5R)-3,4,5-trihydroxypiperidin-1-yl)methyl)piperidin-1-yl)methanone] | 1% | 100 to 1000 nM |
| O[C@H]1[C@H](O)CN(C[C@@H]2CCCN(c3cc(C(F)(F)F)ccn3)C2)C[C@@H]1O [Example 176, (3S,4S,5R)-1-(((S)-1-(4-(trifluoromethyl)pyridin-2-yl)piperidin-3-yl)methyl)piperidine-3,4,5-triol] | 0% | 100 to 1000 nM |
| O[C@H]1[C@H](O)CN(C[C@H]2CC[C@@H](C(F)F)CC2)C[C@@H]1O [Example 186, (3S,4R,5R)-1-(((1s,4S)-4-(difluoromethyl)cyclohexyl)methyl)piperidine-3,4,5-triol] | 8% | 100 to 1000 nM |
| CCCCN1C[C@H](O)[C@@H](O)[C@H](O)[C@H]1CO [NB-DNJ, (2R,3R,4R,5S)-1-butyl-2-(hydroxymethyl)piperidine-3,4,5-triol, reference compound] | 98% | – |
| OC[C@@H]1[C@@H](O)[C@H](O)[C@@H](O)CN1CCCCCOCC12CC3CC(CC(C3)C1)C2 [AMP-DNM, (2R,3R,4R,5S)-1-(5-((3R,5R,7R)-adamantan-1-ylmethoxy)pentyl)-2-(hydroxymethyl)piperidine-3,4,5-triol, reference compound] | 85% | – |
| O[C@H]1[C@H](O)CN(Cc2ccc(N3CCCC3)cc2)C[C@@H]1O [Example 203, (3S,4r,5R)-1-(4-(pyrrolidin-1-yl)benzyl)piperidine-3,4,5-triol] | – | 100 to 1000 nM |
| O[C@H]1[C@H](O)CN(C[C@H]2CCCN(c3nc(C(F)(F)F)cs3)C2)C[C@@H]1O [Example 33, (3S,4R,5R)-1-(((R)-1-(4-(trifluoromethyl)thiazol-2-yl)piperidin-3-yl)methyl)piperidine-3,4,5-triol] | – | < 100 nM |
